Assay results taken from patent publication US12427151B2, “Compositions and method of treating cancer” (The Regents of the University of California, priority 2017, dated 2025).

System: L5178Y tk+/- mouse lymphoma cells
Test: Mutagenic activity at the thymidine kinase (tk) locus
Assay type: cell-based
Conditions: compared to vehicle
Description: Because some nucleobase analogs exert mutagenic activities due to their misrecognition of wrong bases, mutagenic activity of 6-HAP was determined by detecting mutagenic events at the thymidine kinase (tk) locus of L5178Y tk^+/− mouse lymphoma cells.

## COS(C)(=O)=O [methyl methanesulfonate, reference compound]
  mutagenic activity, mutation frequency at tk locus: did induce a high mutation frequency
